Source: PMC4891657, “Orexin 2 Receptor Antagonism is Sufficient to Promote NREM and REM Sleep from Mouse to Man” (Scientific Reports, 2016)
Several values for one entry are separate records, joined by “and”; a condition that tells them apart may be missing. Equal entries are not always repeated.

Target: T1, OX2R (Homo sapiens, UniProt O43614)
T1 sequence (O43614 1-444): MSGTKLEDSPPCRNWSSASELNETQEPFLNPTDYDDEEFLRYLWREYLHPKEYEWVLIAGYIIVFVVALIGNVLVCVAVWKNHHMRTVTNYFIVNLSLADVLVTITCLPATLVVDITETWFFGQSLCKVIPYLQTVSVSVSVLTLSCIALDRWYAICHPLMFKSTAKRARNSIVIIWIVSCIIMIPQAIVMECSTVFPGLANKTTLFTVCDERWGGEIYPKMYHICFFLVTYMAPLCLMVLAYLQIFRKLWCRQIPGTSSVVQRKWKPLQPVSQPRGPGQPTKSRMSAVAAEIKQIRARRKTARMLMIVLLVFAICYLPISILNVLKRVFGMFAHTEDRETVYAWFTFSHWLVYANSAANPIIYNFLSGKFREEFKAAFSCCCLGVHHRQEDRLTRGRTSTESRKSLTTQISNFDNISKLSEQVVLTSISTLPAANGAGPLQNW
Type: in vivo, transgenic rats expressing human Hcrtr2
Parameters: from tissue; host or cells: brain tissue lysate of male transgenic rats expressing human Hcrtr2 cDNA under the rat enolase promoter
From the text: OX2R occupancy in transgenic rats expressing human Hcrtr2 cDNA via the rat enolase promoter in radioligand-binding displacement assays have been described previously. […] Normalized curves where the maximum occupancy value was defined as 100% relative to maximal observed plasma were constructed by fitting data to a one-site binding (hyperbola) curve (GraphPad Prism® v. 6.04, San Diego, CA, USA).

[1] = rats, 2 hours following treatment vs vehicle

## COc1ccc(CNC(=O)c2cc(-c3cncc(Cl)c3)cnc2-c2ccccn2)nc1OC [MK-1064, 5″-chloro-N-[(5,6-dimethoxypyridin-2-yl)methyl]-2,2′:5′, 3″-terpyridine-3′-carbo xamide]
In vivo
  OX2R occupancy at which significant reductions in active wake were observed: 94% and 97%
[1]
  OX2R occupancy at which changes in REM sleep occurred: 94%
  OX2R occupancy at which no significant reduction in active wake was observed: 89%
  OX2R occupancy at which significant SWS changes were induced: 97%
